Patent publication US4563462A, “Substance AX-2, a process for producing the same and an antitumor composition containing the same” (Kyowa Hakko Kogyo Kabushiki, priority 1982, dated 1986)

How the values were obtained:
[1] = Acute toxicity (LD50) of AX-2, single injection, 14 days observation, Behrens-Korber's method; design: species or system Mice (ddy strain); details: mouse, in vivo, male ddy mice
Source text: The acute toxicity and anti-tumour activity of AX-2 are as follows. I. Acute toxicity (LD50) of AX-2:
Mice (ddy strain; male; weight 20±2 g; each group consisting of 5 mice) were used as test animals. On each occasion, the active substance of this invention was once administered to the animal by injection (ip. or iv.).

Melanoma B16 tumour = test: Effects on Melanoma B16 tumour (survival, ip.); assay type: in vivo, C57 BL/6 male mouse
Experimental: (2) Effects on Melanoma B16 tumour:
Tumour cells were collected from Melanoma B16 tumour cells lined in the abdominal cavity of a C57 BL/6 male mouse and suspended in a sterilized physiological solution of sodium chloride at a concentration of 2.5×10^7 cell/ml, of which 0.2 ml was implanted into the abdominal cavity of each mouse. The anti-tumour activity was indicated by T/C % where T and C respectively indicate the average survival days of treated and untreated groups.
As apparent from this table, it was noted that by administration of AX-2 in an amount of 6 mg/kg, the T/C value was more than 277% and 1/5 of the mice were alive 60 days after the beginning of the administration. The therapeutic index [a dose showing a maximum therapeutic effect/a dose showing a T/C of 130%] was 193.

Sarcoma 180 solid tumour = test: Effect on Sarcoma 180 solid tumour (volume ratio T/C, iv.); assay type: in vivo, ddy male mouse; details: for T/C (tumour volume ratio): 7 days after administration; for Survials (7 days): Sarcoma 180 mice
Experimental: (1) Effect on Sarcoma 180 solid tumour:
(§1) On each occasion, 5×10^6 cells of Sarcoma 180 solid tumour were implanted into the abdominal cavity of a ddy male mouse. 7 days after this, the cells were collected from the ascites.The cells were washed once with a sterilized physiological solution of sodium chloride and suspended in a sterilized physiological solution of sodium chloride at a concentration of 5×10^7 cells/ml, of which 0.1 ml was implanted under the skin at the right artpit of a ddy male mouse having a weight of 20±2 g. 24 hours after this, the active substance was administered into the vein at the tail of each mouse of a group consisting of 5 mice. In order to investigate the anti-tumour activity, 7 days after administration of AX-2, the major axis (a) and minor axis (b) of the tumour were measured, from which the volume of the tumour was calculated as a X b^2 /2. The effect of AX-2 is expressed by T/C which denotes the volume ratio of T [mice administered with AX-2 ] to C (untreated group). Table 1 indicates the effect of AX-2 agsinst Sarcoma 180 solid tumour by injection (iv.).
A T/C of 0.25 was obtained from the group, to which each 15 mg/kg of AX-2 had been administered. In this table, ED50 denotes a dose capable of reducing the volume of the tumour to 50% of the corresponding volume of the control group. Such volumes were calculated by plotting a relation between the dose and T/C on a logarithmic graph which indiates T/C on the ordinate and the dose on the abscissa, and calculating the dose and anti-tumour activity as a straight line by the method of least squares. The dose corresponding to T/C of 0.5 is defined as ED50.

Solubility = assay type: physicochemical
Peripherical leucocytes = Peripherical leucocytes count (WBC) in Sarcoma 180 bearing mice; assay type: in vivo, ddy male mouse; details: blood 4 days after tumour implantation
Experimental: as §1
The peripherical leucocytes count (WBC) was measured by using a micro cell counter in the following manner. Sarcoma 180 solid tumour was implanted by injection (ip.). 4 days after this, blood was collected from the eye ground, of which 20 μl was added to 9.98 ml of Cellkit-7 (a reagent commercially available from Toyo Rika K.K., Japan) to dissolve the red cells. In this solution a drop of saponin was dispersed, followed by measuring with a micro cell counter.

With COC1=C(C)C(=O)C2=C(C1=O)C(COC(N)=O)C1(OC)NCC3C1N23 (stereo not shown) [AX-2] the LD50 at 336 h ([1]; ip.) was 7.8 mg/kg, the LD50 at 336 h ([1]; iv.) was 27 mg/kg and the “therapeutic index [a dose showing a maximum therapeutic effect/a dose showing a T/C of 130%]” value (Melanoma B16 tumour) was 193. For the same compound, the “Average survival days (days ± SD)” value (Melanoma B16 tumour; 0.031 mg/kg) was 18.4 ± 1.5 days, the “Survived after 60 days after implantation” value (“Survived after 60 days” for short) (Melanoma B16 tumour; 0.031 mg/kg) was 0/5 and the “T/C (average survival days treated/untreated)” value (Melanoma B16 tumour; 0.031 mg/kg) was 144%. For the same compound, the “Average survival days (days ± SD)” value (Melanoma B16 tumour; 0.063 mg/kg) was 13.0 ± 1.7 days, the “Survived after 60 days” value (Melanoma B16 tumour; 0.063 mg/kg) was 0/5 and the “T/C (average survival days treated/untreated)” value (Melanoma B16 tumour; 0.063 mg/kg) was 140%. For the same compound, the “Average survival days (days ± SD)” value (Melanoma B16 tumour; 0.125 mg/kg) was 19.4 ± 2.0 days, the “Survived after 60 days” value (Melanoma B16 tumour; 0.125 mg/kg) was 0/5 and the “T/C (average survival days treated/untreated)” value (Melanoma B16 tumour; 0.125 mg/kg) was 152%. For the same compound, the “Average survival days (days ± SD)” value (Melanoma B16 tumour; 0.25 mg/kg) was 17.8 ± 1.1 days, the “Survived after 60 days” value (Melanoma B16 tumour; 0.25 mg/kg) was 0/5 and the “T/C (average survival days treated/untreated)” value (Melanoma B16 tumour; 0.25 mg/kg) was 140%. The “Average survival days (days ± SD)” value (Melanoma B16 tumour; 0.5 mg/kg) was 21.0 ± 2.8 days, the “Survived after 60 days” value (Melanoma B16 tumour; 0.5 mg/kg) was 0/5 and the “T/C (average survival days treated/untreated)” value (Melanoma B16 tumour; 0.5 mg/kg) was 164%. The “Average survival days (days ± SD)” value (Melanoma B16 tumour; 1.0 mg/kg) was 24.0 ± 3.5 days, the “Survived after 60 days” value (Melanoma B16 tumour; 1.0 mg/kg) was 0/5 and the “T/C (average survival days treated/untreated)” value (Melanoma B16 tumour; 1.0 mg/kg) was 189%. For the same compound, the “Average survival days (days ± SD)” value (Melanoma B16 tumour; 2.0 mg/kg) was 27.4 ± 5.4 days, the “Survived after 60 days” value (Melanoma B16 tumour; 2.0 mg/kg) was 0/5 and the “T/C (average survival days treated/untreated)” value (Melanoma B16 tumour; 2.0 mg/kg) was 214%. For the same compound, the “Average survival days (days ± SD)” value (Melanoma B16 tumour; 4.0 mg/kg) was 33.4 ± 9.2 days, the “Survived after 60 days” value (Melanoma B16 tumour; 4.0 mg/kg) was 0/5 and the “T/C (average survival days treated/untreated)” value (Melanoma B16 tumour; 4.0 mg/kg) was 261%. For the same compound, the “Average survival days (days ± SD)” value (Melanoma B16 tumour; 6.0 mg/kg) was 35.4 ± 5.3 days, the “Survived after 60 days” value (Melanoma B16 tumour; 6.0 mg/kg) was 1/5 and the “Average survival days (days ± SD)” value (Melanoma B16 tumour; 8.0 mg/kg) was 10.6 ± 4.2 days. For the same compound, the “Survived after 60 days” value (Melanoma B16 tumour; 8.0 mg/kg) was 0/5, the “T/C (average survival days treated/untreated)” value (Melanoma B16 tumour; 8.0 mg/kg) was 93% and the “Average survival days (days ± SD)” value (Melanoma B16 tumour; 12.0 mg/kg) was 4.8 ± 1.6 days. For the same compound, the “Survived after 60 days” value (Melanoma B16 tumour; 12.0 mg/kg) was 0/5, the “T/C (average survival days treated/untreated)” value (Melanoma B16 tumour; 12.0 mg/kg) was 26% and the “T/C (tumour volume ratio)” value (Sarcoma 180 solid tumour; 1.88 mg/kg) was 0.77. The “Survials (7 days)” value (Sarcoma 180 solid tumour; 1.88 mg/kg) was 4/4, the “T/C (tumour volume ratio)” value (Sarcoma 180 solid tumour; 3.75 mg/kg) was 0.64 and the “Survials (7 days)” value (Sarcoma 180 solid tumour; 3.75 mg/kg) was 4/4. The “T/C (tumour volume ratio)” value (Sarcoma 180 solid tumour; 7.5 mg/kg) was 0.42, the “Survials (7 days)” value (Sarcoma 180 solid tumour; 7.5 mg/kg) was 4/4 and the “T/C (tumour volume ratio)” value (Sarcoma 180 solid tumour; 10 mg/kg) was 0.34. The “Survials (7 days)” value (Sarcoma 180 solid tumour; 10 mg/kg) was 4/4, the “T/C (tumour volume ratio)” value (Sarcoma 180 solid tumour; 15 mg/kg) was 0.25 and the “Survials (7 days)” value (Sarcoma 180 solid tumour; 15 mg/kg) was 4/4. For the same compound, the “T/C (tumour volume ratio)” value (Sarcoma 180 solid tumour; 30 mg/kg) was 0.05, the “Survials (7 days)” value (Sarcoma 180 solid tumour; 30 mg/kg) was 3/4 and the “effect (dose dependence)” value (Sarcoma 180 solid tumour; 7.5 to 15 mg/kg) was “the effect increased according to the increased dose”. For the same compound, the ED50 (Sarcoma 180 solid tumour; Mus musculus, Sarcoma-180, 168 h, least squares from dose vs T/C log plot, read-out: ED50 (dose reducing tumour volume to 50% of control, T/C 0.5)) was 5.7 mg/kg, the Solubility (Solubility; ethyl acetate, chloroform, acetone, methanol and ethanol) was “Soluble” and the Solubility (Solubility; petroleum ether and n-hexane) was “Insoluble”. For the same compound, the Solubility (Solubility; water) was “Slightly soluble”, the “Peripherical leucocytes count (WBC) ± SD/mm^3” value (Peripherical leucocytes; 1.88 mg/kg) was 7730 ± 49 /mm^3 and the “Peripherical leucocytes count (WBC) ± SD/mm^3” value (Peripherical leucocytes; 3.75 mg/kg) was 6730 ± 115 /mm^3. The “Peripherical leucocytes count (WBC) ± SD/mm^3” value (Peripherical leucocytes; 7.5 mg/kg) was 4100 ± 55 /mm^3, the “Peripherical leucocytes count (WBC) ± SD/mm^3” value (Peripherical leucocytes; 10 mg/kg) was 2800 ± 80 /mm^3 and the “Peripherical leucocytes count (WBC) ± SD/mm^3” value (Peripherical leucocytes; 15 mg/kg) was 2950 ± 42 /mm^3. The “Peripherical leucocytes count (WBC) ± SD/mm^3” value (Peripherical leucocytes; 30 mg/kg) was 2300 ± 60 /mm^3.
